Laboratory results: patent publication US20220356163A1, “SMALL MOLECULE INHIBITORS OF Id PROTEINS” (MEMORIAL SLOAN KETTERING CANCER CENTER, priority 2019, published 2022)

Experiments:
colon tumors = assay: Azoxymethane (AOM) colon tumor model; type: in vivo, mouse; conditions: 15 mg/kg i.p. for three weeks
Method: Spontaneous colon tumors will be induced by treating 30, 4-week old male A/J mice (Jackson Laboratory) with AOM (10 mg/kg; Sigma Aldrich) once a week by i.p. injection for 6 weeks. Mice will be maintained on AIN-93G purified diet (Research Diets) for the duration of the experiment. After a three-week treatment break mice will be treated i.p. for three weeks with DMSO, AGX51 (15 mg/kg) or a compound of the present technology (e.g., AGX-A; 15 mg/kg). Following the last injection, the mice will be euthanized and colon tumors will be formalin fixed to assess tumor burden. Tumor numbers and size will be determined in whole mounts of the tissues following methylene blue staining. For aid in future comparison with a compound of the present technology, the study was initially performed with DMSO and AGX51 where exemplary data of effects of AGX51 on sporadic tumor is shown FIGS. 35A-35D.

MDA-MB-157 = assay: MTT assay, MDA-MB-157; type: cell-based; conditions: Homo sapiens, 24 h, MDA-MB-157, TNBC cell line, read-out: IC50 value after 24 hours of treatment
Description: (§1) The 4T1 murine mammary tumor cell line and nine breast cancer cell lines representing the major breast cancer subtypes (ER+, HER2+, and TNBC) including MDA-MB-157, MDA-MB-436, MDA-MB-231, MDA-MB-453, MDA-MB-361, BT-474, SK-BR-3, MCF-7 and T47-D will be grown in RPMI or DMEM (Dulbecco's Modified Eagle Medium) media supplemented with 10% FBS (fetal bovine serum), 1% penicillin-streptomycin and 1% L-Glutamine. Patient derived xenograft cell lines BR7, BR11, and IBT will be established directly from breast cancer bone metastases specimens surgically resected from patients with informed consent. BR7 and BR11 specimens will be obtained from ER positive (HER2 negative and PR negative) metastatic breast cancer patients, while the IBT specimen will be obtained from a metastatic, triple negative breast cancer patient. Fresh tumor tissues will be quickly washed with ice cold PBS and minced into about 1-3 mm pieces in MEM medium (without FBS) using sterile razor blades. […] The cells will be treated with either 100 μM DMSO, AGX51, or a compound of the present technology such as AGX-A. The cell morphology and growth will be monitored daily for 1 week by microscopy for changes in morphology or cell death. […] Absorbance will then measured at 570 nm using a plate reader (Synergy 2, BioTek). […]

ID1 mRNA = assay: qRT-PCR for ID1 in HCT116 cells; type: cell-based; conditions: 40 μM, 24 hours
Method: qRT-PCR. RNA was extracted using the RNeasy kit (Qiagen, Valencia, Calif., USA) and cDNA was generated from 1 μg of RNA using SuperScript IV First-Strand Synthesis System (Invitrogen, Grand Island, N.Y., USA). Quantitative PCR was performed using SYBR Green QuantiTect Primer Assay (Qiagen) according to manufacturer's instructions in a 7900HT Fast-Real Time PCR System Instrument (Applied Biosystems, Grand Island, N.Y., USA). Primer pairs for the individual genes were obtained from the bioinformatically validated QuantiTect Library and are as follows: ID1 (QT00230650), ID3 (QT01673336), and GAPDH (QT01192646). The fold changes in gene expression were calculated using the delta-delta CT method.

MCF-7 = assay: MTT assay, MCF-7; type: cell-based; conditions: Homo sapiens, MCF7, 24 h, MCF-7, ER +ve cell line, read-out: IC50 value after 24 hours of treatment
Description: as §1

DU145 cells = assay: Prostate cancer cell morphology, growth and death; type: cell-based
Method: Prostate cancer cell lines DU145 and PC3 (in 10% BCS) will be cultured in Ham's F12 (Gibco, Carlsbad, Calif.) medium containing 10% BCS (Hyclone, Logan, Utah) and appropriate antibiotics (pen/strep, fungizaone, and gentamycin (Invitrogen Inc., Carlsbad, Calif.). All cells will be cultured at 37° C. in a fully humidified atmosphere containing 5% CO2.
At 50% confluence, the cells will be treated with either 100 μM DMSO, AGX51, or a compound of the present technology (such as AGX-A). The cell morphology and growth will be monitored daily for 1 week by microscopy for changes in morphology or cell death. Apoptosis will be determined by measuring caspase 3 and caspase 7 activities using the Caspase-Glo 3/7 Assay system from Promega (Madison, Wis.).

ID1 = biological target: T1, ID1 (Homo sapiens, UniProt P41134); assay: Knockdown of Id1 in TFK1 cell cultures; type: cell-based; set-up: endogenous in cells; host or cells: TFK1; conditions: TFK1, FIG. 21
T1 sequence (P41134 1-155): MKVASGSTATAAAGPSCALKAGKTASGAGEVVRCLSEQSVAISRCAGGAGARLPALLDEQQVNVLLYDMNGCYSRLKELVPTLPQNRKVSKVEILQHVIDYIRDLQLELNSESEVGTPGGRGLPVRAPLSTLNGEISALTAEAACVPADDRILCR
Description: Following the methods described herein (see, e.g., Examples 12-13), AGX-A and AGX51 were compared for their ability to mediate Id knockdown in cell cultures. FIG. 21 illustrates side-by-side comparative effects of AGX51 and AGX-A for knockdown of Id1 in TFK1 cell cultures, and FIG. 22 illustrates side-by-side comparative effects of AGX51 and AGX-A for knockdown of Id3 in TFK1 cell cultures.

Structure (SMILES): CCC(=O)N(CCC(c1ccc2c(c1)OCO2)c1ccccc1OC)Cc1ccccc1 (racemic) [AGX51, N-(3-(benzo[d][1,3]dioxol-5-yl)-3-(2-methoxyphenyl)propyl)-N-benzylpropionamide]
- number of colon tumors (colon tumors; p=0.008): significant decrease in the number of colon tumors
- colon tumor size vs DMSO group (colon tumors; significant for tumors >3 mm (p=0.004)): smaller than those in the DMSO group
- IC50 (MDA-MB-157): 22.3 µM
- ID1 mRNA levels (ID1 mRNA): increase in ID1 mRNA levels
- IC50 (MCF-7): 60 µM
- DU145 cell death (DU145 cells; after six days): lead to cell death
- effect on DU145 cells (DU145 cells; after three days): pronounced effect on DU145 cells

Structure (SMILES): COc1ccccc1C(CCNCc1ccccc1)c1ccc(OC(C)C)cc1 (centres unmarked) [AGX-A, N-benzyl-3-(4-isopropoxyphenyl)-3-(2-methoxyphenyl)propan-1-anine]
- Id1 knockdown potency vs AGX51 (ID1): superior anti-Id1 and anti-Id3 potency compared to AGX51
